Results from ChEMBL document CHEMBL5579801, “Novel orexin receptor agonists based on arene- or pyridine-fused 1,3-dihydro-2H-imidazole-2-imines” (Bioorg Med Chem Lett, 2024).

Key:
[1] = target: T1, Orexin receptor type 2 (Homo sapiens, UniProt O43614); test: Agonist activity at human OX2R expressed in human HEK293 cells co-transfected with human Galphaq assessed as accumulation of inositol phosphate by scintillation counter analysis
T1 sequence (O43614 whole entry): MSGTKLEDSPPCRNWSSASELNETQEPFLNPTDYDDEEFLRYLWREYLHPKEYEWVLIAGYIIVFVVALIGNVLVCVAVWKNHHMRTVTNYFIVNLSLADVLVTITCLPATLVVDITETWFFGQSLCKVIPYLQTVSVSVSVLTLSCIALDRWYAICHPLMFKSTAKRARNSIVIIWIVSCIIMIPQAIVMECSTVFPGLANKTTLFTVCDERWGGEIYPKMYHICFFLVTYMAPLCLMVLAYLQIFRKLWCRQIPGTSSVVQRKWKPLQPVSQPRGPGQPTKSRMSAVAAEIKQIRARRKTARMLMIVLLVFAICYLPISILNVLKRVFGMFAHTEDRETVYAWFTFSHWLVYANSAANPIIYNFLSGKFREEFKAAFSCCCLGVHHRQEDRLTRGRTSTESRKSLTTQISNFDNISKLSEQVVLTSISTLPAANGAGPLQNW

[2] = Tmax in mouse plasma at 5 mg/kg,iv administration; type: ADME, organism-based
[3] = Tmax in mouse brain at 5 mg/kg,iv administration; type: ADME, organism-based
[4] = tested on: HEK293; test: Cytotoxicity against human HEK293 cells upto 100 uM incubated for 3 days; type: toxicity, cell-based; conditions: hek293, 72 h, time 3 day
[5] = AUClast in mouse plasma at 5 mg/kg,iv administration; type: ADME, organism-based
[6] = Cmax in mouse brain at 5 mg/kg,iv administration; type: ADME, organism-based
[7] = AUClast in mouse brain at 5 mg/kg,iv administration; type: ADME, organism-based; conditions: in vivo
[8] = Half life in mouse plasma at 5 mg/kg,iv administration; type: ADME, organism-based
[9] = Half life in mouse brain at 5 mg/kg,iv administration; type: ADME, organism-based
[10] = Ratio of AUC in mouse brain to plasma at 5 mg/kg,iv administration; type: ADME, organism-based; conditions: read-out: Ratio AUC
[11] = Cmax in mouse plasma at 5 mg/kg,iv administration; type: ADME, organism-based
[12] = Ratio of Cmax in mouse brain to plasma at 5 mg/kg,iv administration; type: ADME, organism-based

With `Cc1ccc(C[C@@H](CNC(=O)CC(F)(F)F)n2c(=N)n(Cc3ccc(C)cc3)c3ccccc32)cc1` the EC50 [1] was 6.46 µM.
For `Cc1ccc(C[C@@H](CO)n2c(=N)n(Cc3ccc(C)cc3)c3cc(Cl)ccc32)cc1`, the EC50 [1] was > 10 µM.
For `Cc1ccc(C[C@@H](COCCC#N)n2c(=N)n(C(C)c3ccc(C)cc3)c3cccnc32)cc1` (stereo in doubt; 69b), the EC50 [1] was 5.62 µM.
Work on `CCSC[C@H](Cc1ccc(C)cc1)n1c(=N)n(Cc2ccc(C)cc2)c2ccccc21` yielded an EC50 [1] of 3.98 µM.
`COCCOC[C@H](Cc1ccc(C)cc1)n1c(=N)n(C(C)c2ccc(C)cc2)c2cccnc21` (stereo in doubt; 63b) gave an EC50 [1] of 4.68 µM.
Work on `Cc1ccc(C[C@@H](C[S+](C)[O-])n2c(=N)n(Cc3ccc(C)cc3)c3ccccc32)cc1` (some centres not stated) yielded an EC50 [1] of 7.08 µM.
For `Cc1ccc(C[C@@H](CNC(=O)CO)n2c(=N)n(C(C)c3ccc(C)cc3)c3cccnc32)cc1` (stereo in doubt; 68b), the EC50 [1] was > 10 µM.
Work on `Cc1ccc(C[C@@H](CS(C)(=O)=O)n2c(=N)n(Cc3ccc(C)cc3)c3ccccc32)cc1` yielded an EC50 [1] of 4.47 µM.
For `COC[C@H](Cc1ccc(C)cc1)n1c(=N)n(C(c2ccc(C)cc2)C2CC2)c2ccccc21` (stereo in doubt; 61b), the Tmax [2] was 10 min, the Tmax [3] was 30 min and the Activity [4] was “Non-Toxic”. It also gave an AUC(0-t) [5] of 986 ng·h/mL, a Cmax [6] of 143 ng/g and an AUClast [7] of 38969 ng·min/g. For the same compound, the half-life [8] was 74 min, the EC50 [1] was 0.603 µM and the half-life [9] was 134 min. The Kp [10] was 0.66, the Cmax [11] was 841 ng/mL and the Kp [12] was 0.17.
In the case of `Cc1ccc(CC(CNC(=O)C2CC2)n2c(=N)n(Cc3ccc(C)cc3)c3ccccc32)cc1` (racemic), the EC50 [1] is reported as 5.25 µM.
For `Cc1ccc(C[C@@H](COCCN(C)C)n2c(=N)n(Cc3ccc(C)cc3)c3ccccc32)cc1`, the EC50 [1] was 3.98 µM.
Work on `COCCOC[C@H](Cc1ccc(C)cc1)n1c(=N)n(C(C)c2ccc(C)cc2)c2cccnc21` (stereo in doubt; 63c) yielded an EC50 [1] of 0.339 µM.
With `CCC(=O)NCC(Cc1ccc(C)cc1)n1c(=N)n(Cc2ccc(C)cc2)c2ccccc21` (racemic) the EC50 [1] was 8.13 µM.
For `Cc1ccc(C[C@@H](CO)n2c(=N)n(Cc3ccc(C)cc3)c3ccc(C)cc32)cc1`, the EC50 [1] was > 10 µM.
In the case of `Cc1ccc(CC(CNC(=O)c2ccccc2)n2c(=N)n(Cc3ccc(C)cc3)c3ccccc32)cc1` (racemic), the EC50 [1] is reported as > 10 µM.
Compound `COC[C@H](Cc1ccc(C)cc1)n1c(=N)n(C(c2ccc(C)cc2)C(F)(F)F)c2ccccc21` (mixture of isomers) has an EC50 [1] of 1.41 µM.
Work on `Cc1ccc(C[C@@H](CNC(=O)CO)n2c(=N)n(C(C)c3ccc(C)cc3)c3ccccc32)cc1` (mixture of isomers) yielded an EC50 [1] of 0.661 µM.
With `Cc1ccc(CC(CNC(=O)CCCO)n2c(=N)n(Cc3ccc(C)cc3)c3ccccc32)cc1` (racemic) the EC50 [1] was > 10 µM.
For `Cc1ccc(C[C@@H](CO)n2c(=N)n(Cc3ccc(C)cc3)c3ccc(C(F)(F)F)cc32)cc1`, the EC50 [1] was > 10 µM.
Compound `CSC[C@H](Cc1ccc(C)cc1)n1c(=N)n(Cc2ccc(C)cc2)c2ccccc21` has an EC50 [1] of 2.34 µM.
In the case of `COC(=O)NCC(Cc1ccc(C)cc1)n1c(=N)n(Cc2ccc(C)cc2)c2ccccc21` (racemic), the EC50 [1] is reported as 1.86 µM.
Compound `Cc1ccc(CC(CNC(=O)N(C)C)n2c(=N)n(Cc3ccc(C)cc3)c3ccccc32)cc1` (racemic) has an EC50 [1] of 4.17 µM.
Compound `Cc1ccc(CC(CNC(=O)CN(C)C)n2c(=N)n(Cc3ccc(C)cc3)c3ccccc32)cc1` (racemic) has an EC50 [1] of 3.31 µM.
With `Cc1ccc(C[C@@H](C(=O)N2CC(C#N)C2)n2c(=N)n(C(C)c3ccc(C)cc3)c3ccccc32)cc1` (mixture of isomers) the Tmax [2] was 10 min, the Tmax [3] was 10 min and the Activity [4] was “Non-Toxic”. For the same compound, the AUC(0-t) [5] was 295 ng·h/mL, the Cmax [6] was 53.2 ng/g and the AUClast [7] was 8586 ng·min/g. It also gave a half-life [8] of 185 min, an EC50 [1] of 0.661 µM and a half-life [9] of 234 min. For the same compound, the Kp [10] was 0.48, the Cmax [11] was 225 ng/mL and the Kp [12] was 0.24.
In the case of `Cc1ccc(C[C@@H](CNC(=O)CO)n2c(=N)n(C(C)c3ccc(C)cc3)c3cccnc32)cc1` (stereo in doubt; 68c), the EC50 [1] is reported as 1.32 µM.
`COC[C@H](Cc1ccc(C)cc1)n1c(=N)n(C(c2ccc(C)cc2)C2CC2)c2ccccc21` (stereo in doubt; 61c) gave an EC50 [1] of 1.95 µM.
In the case of `Cc1ccc(C[C@@H](CNC(=O)CO)n2c(=N)n(C(C)c3ccc(C)cc3)c3ccccc32)cc1` (stereo in doubt; 65c), the Tmax [2] is reported as 10 min, the Tmax [3] is reported as 30 min and the Activity [4] is reported as “Non-Toxic”. It also gave an AUC(0-t) [5] of 691 ng·h/mL, a Cmax [6] of 15.3 ng/g and an AUClast [7] of 11291 ng·min/g. The half-life [8] was 230 min, the EC50 [1] was 0.437 µM and the half-life [9] was 729 min. For the same compound, the Kp [10] was 0.27, the Cmax [11] was 600 ng/mL and the Kp [12] was 0.026.
With `COCOC[C@H](Cc1ccc(C)cc1)n1c(=N)n(C(C)c2ccc(C)cc2)c2cccnc21` (stereo in doubt; 62c) the Tmax [2] was 10 min, the Tmax [3] was 10 min and the Activity [4] was “Non-Toxic”. It also gave an AUC(0-t) [5] of 673 ng·h/mL, a Cmax [6] of 2460 ng/g and an AUClast [7] of 100501 ng·min/g. It also gave a half-life [8] of 48 min, an EC50 [1] of 0.933 µM and a half-life [9] of 34 min. It also gave a Kp [10] of 2.49, a Cmax [11] of 741 ng/mL and a Kp [12] of 3.32.
In the case of `Cc1ccc(CC(CNC(=O)Cc2ccccc2)n2c(=N)n(Cc3ccc(C)cc3)c3ccccc32)cc1` (racemic), the EC50 [1] is reported as > 10 µM.
In the case of `Cc1ccc(CC(CNC(=O)CN)n2c(=N)n(Cc3ccc(C)cc3)c3ccccc32)cc1` (racemic), the EC50 [1] is reported as > 10 µM.
Compound `Cc1ccc(CC(CNC(=O)Cc2cccnc2)n2c(=N)n(Cc3ccc(C)cc3)c3ccccc32)cc1` (racemic) has an EC50 [1] of 4.68 µM.
With `Cc1ccc(C[C@@H](COCCC#N)n2c(=N)n(C(C)c3ccc(C)cc3)c3cccnc32)cc1` (stereo in doubt; 69c) the EC50 [1] was 0.372 µM.
`Cc1ccc(CC(CNC(=O)C(F)(F)F)n2c(=N)n(Cc3ccc(C)cc3)c3ccccc32)cc1` (racemic) showed an EC50 [1] of 6.61 µM.
For `Cc1ccc(CC(CNC(=O)Cc2ccncc2)n2c(=N)n(Cc3ccc(C)cc3)c3ccccc32)cc1` (racemic), the EC50 [1] was > 10 µM.
Compound `CCOC(=O)NCC(Cc1ccc(C)cc1)n1c(=N)n(Cc2ccc(C)cc2)c2ccccc21` (racemic) has an EC50 [1] of 2.69 µM.
For `Cc1ccc(C[C@@H](C(=O)N2CC3(CNC3)C2)n2c(=N)n(C(C)c3ccc(C)cc3)c3ccccc32)cc1` (mixture of isomers), the EC50 [1] was > 10 µM.
With `Cc1ccc(C[C@@H](CNC(=O)c2cccc(C)n2)n2c(=N)n(Cc3ccc(C)cc3)c3ccccc32)cc1` the EC50 [1] was > 10 µM.
With `Cc1ccc(C[C@@H](CNC(=O)CO)n2c(=N)n(C(c3ccc(C)cc3)C(C)C)c3ccccc32)cc1` (mixture of isomers) the EC50 [1] was 1.95 µM.
With `Cc1ccc(CC(CNC(=O)Cc2ncccn2)n2c(=N)n(Cc3ccc(C)cc3)c3ccccc32)cc1` (racemic) the EC50 [1] was > 10 µM.
For `Cc1ccc(C[C@@H](CNC(=O)c2ccco2)n2c(=N)n(Cc3ccc(C)cc3)c3ccccc32)cc1`, the EC50 [1] was > 10 µM.
In the case of `Cc1ccc(CC(CNS(=O)(=O)C(F)(F)F)n2c(=N)n(Cc3ccc(C)cc3)c3ccccc32)cc1` (racemic), the EC50 [1] is reported as > 10 µM.
`Cc1ccc(C[C@@H](CSC(C)C)n2c(=N)n(Cc3ccc(C)cc3)c3ccccc32)cc1` showed an EC50 [1] of 5.37 µM.
With `COCCCOC[C@H](Cc1ccc(C)cc1)n1c(=N)n(Cc2ccc(C)cc2)c2ccccc21` the EC50 [1] was 3.63 µM.
Work on `Cc1ccc(CC(CNC=O)n2c(=N)n(Cc3ccc(C)cc3)c3ccccc32)cc1` (racemic) yielded an EC50 [1] of 2.45 µM.
For `Cc1ccc(C[C@@H](C(=O)N2CC(C#N)C2)n2c(=N)n(C(C)c3ccc(C)cc3)c3cccnc32)cc1` (some centres not stated), the Tmax [2] was 10 min, the Tmax [3] was 10 min and the Activity [4] was “Non-Toxic”. It also gave an AUC(0-t) [5] of 518 ng·h/mL, a Cmax [6] of 218 ng/g and an AUClast [7] of 12554 ng·min/g. The half-life [8] was 40 min, the half-life [9] was 47 min and the Cmax [11] was 651 ng/mL.
For `COC[C@H](Cc1ccc(C)cc1)n1c(=N)n(C(c2ccc(C)cc2)C2CCC2)c2ccccc21` (mixture of isomers), the EC50 [1] was > 10 µM.
With `Cc1ccc(C[C@@H](CNC(=O)CO)n2c(=N)n(C(C)c3ccc(C)cc3)c3ccccc32)cc1` (stereo in doubt; 65b) the EC50 [1] was 1.51 µM.
With `Cc1ccc(C[C@@H](CNC(=O)c2ncccc2C)n2c(=N)n(Cc3ccc(C)cc3)c3ccccc32)cc1` the EC50 [1] was > 10 µM.
Work on `Cc1ccc(C[C@@H](CNS(=O)(=O)C(F)F)n2c(=N)n(Cc3ccc(C)cc3)c3ccccc32)cc1` yielded an EC50 [1] of 6.46 µM.
Compound `COCOC[C@H](Cc1ccc(C)cc1)n1c(=N)n(C(C)c2ccc(C)cc2)c2cccnc21` (stereo in doubt; 62b) has an EC50 [1] of 5.75 µM.
